In patent US4606860A, “Rhodanines useful as a therapeutic agent for diabetic complications” (Kaken Pharmaceutical Co., Ltd., priority 1984, dated 1986):
Counter-ions that a name gives are not always drawn. Like-named read-outs stand apart in the source and are kept apart here.

What was measured:
aldose reductase = target: T1, aldose reductase (Rattus norvegicus, UniProt P07943); experiment: Aldose reductase inhibiting activity (crude enzyme from rat lens, NADPH absorbance at 340 nm); format: biochemical, rat (Wistar strain); details: DL-glyceraldehyde 10 mM, NADPH 0.104 mM, pH 6.2, Table 4, read-out: IC50 (50% inhibition concentration), aldose reductase
T1 construct: the supernatant was used as the crude enzyme solution; from tissue; host or cells: lens of male Wistar rats (10,000 g supernatant of homogenate, crude enzyme)
Protocol: Thus, Wistar strain male rats were sacrificed by decapitation, the lenses were excised and homogenized with a 0.1 M phosphate buffer [pH 6.8; containing 1 mM of mercaptoethanol and 1 mM of nicotinamide-adenine dinucleotide phosphate (NADP)]. The homogenate was then centrifuged at 10,000 g for 15 minutes and the supernatant was used as the crude enzyme solution.
To this buffer solution, there was added 15 μl of each of solutions of each test compound in varied concentrations, followed by addition of 25 μl of the crude enzyme solution prepared in advance, to thereby initiate the reaction.

[1] = test system: thrombin-induced aggregation of washed rabbit platelets; experiment: Platelet aggregation inhibiting activity (thrombin-stimulated washed rabbit platelets, aggregometer); format: cell-based, rabbit (albino, white local breed); details: for IC50: Oryctolagus cuniculus, Platelet; for platelet aggregation inhibiting activity, in words: comparison with other compounds or Dipyridamole (Persantine)
Protocol: The platelets were suspended in a 15 mM Tris-hydrochloric acid buffer in a final concentration of 6×10^8 cells/ml (Tris: tris(hydroxymethyl)aminomethane). Each test compound was added thereto and incubation was carried out at 37° C. for 2 minutes. Then, the platelets were stimulated by addition of thrombin (final concentration 0.2 unit/ml; made by Mochida Pharmaceutical Co.) and the aggregation inhibiting activity was estimated by observation of the aggregation reaction using an aggregometer (made by Briston Co.).

male ddY strain mice = experiment: Acute toxicity in mice (oral); format: in vivo; details: 2 weeks
Description: (§1) The acute toxicity in mice was examined with the rhodanine derivative (I) of the present invention.

[2] = Acute toxicity in mice (oral); format: in vivo; details: mouse, in vivo, male ddY mice, 2 weeks
Description: as §1

[3] = 2 min, washed rabbit platelets 6×10^8 cells/ml, thrombin 0.2 unit/ml, 37° C., 2 minutes, Table 3, read-out: IC50 (50 % inhibition concentration), platelet aggregation
[4] = washed rabbit platelets, read-out: concentration inhibiting thrombin-induced aggregation by 50%
[5] = 2 min, read-out: IC50 (50 % inhibition concentration), platelet aggregation

Structure (SMILES)	IC50 (aldose reductase) [nM]	IC50 [1, 4] [µM]	platelet aggregation inhibiting activity, in words [1]	also measured
CN1CCCN(C=C2SC(=S)N(CC(=O)O)C2=O)CC1 [Compound No. 14, 3-Carboxymethyl-5-N-methylhomopiperazinomethylidenerhodanine]	1300	–	–	–
C=CCNC=C1SC(=S)N(CC(=O)O)C1=O [Compound No. 4, 3-Carboxymethyl-5allylaminomethylidenerhodanine]	300	–	–	–
CN(C)C=C1SC(=S)N(CC(=O)O)C1=O [Compound No. 2, 3-Carboxymethyl-5-dimethylaminomethylidenerhodanine]	650	–	–	–
CCCCCCNC=C1SC(=S)N(CC(=O)O)C1=O [Compound No. 6, 3-Carboxymethyl-5-hexylaminomethylidenerhodanine]	280	–	–	–
CN1CCN(C=C2SC(=S)N(CC(=O)O)C2=O)CC1 [Compound No. 13, 3-Carboxymethyl-5-N-methylpiperazinomethylidenerhodanine]	200	–	–	–
O=C(O)CN1C(=O)C(=CN2CCOCC2)SC1=S [Compound No. 12, 3-Carboxymethyl-5-morpholinomethylidenerhodanine]	340	–	–	–
COc1ccccc1NC=C1SC(=S)N(CC(=O)O)C1=O [Compound No. 8, 3-Carboxymethyl-5-o-methoxyphenylaminomethylidenerhodanine]	50	300	almost comparable in said activity to Dipyridamole	IC50 [1, 3]: 310 µM
O=C(O)CN1C(=O)C(=CNCCO)SC1=S [Compound No. 3, Ethanolamine salt of 3-Carboxymethyl-5-hydroxyethylaminomethylidenerhodanine]	700	–	–	–
CNC=C1SC(=S)N(CC(=O)O)C1=O [Compound No. 1, 3-Carboxymethyl-5-methylaminomethylidenerhodanine]	1300	–	–	–
O=C(O)CN1C(=O)C(=CNc2cccc(Cl)c2)SC1=S [Compound No. 9, 3-Carboxymethyl-5-m-chlorophenylaminomethylidenerhodanine]	23	300	almost comparable in said activity to Dipyridamole	deaths noted up to a dose of 4 g/kg body weight (male ddY strain mice): no deaths were noted; LD50 at 336 h [2]: > 4000 mg/kg
Cc1cccc(NC=C2SC(=S)N(CC(=O)O)C2=O)c1 [Compound No. 11, 3-Carboxymethyl-5-m-methylphenylaminomethylidenerhodanine]	36	300	almost comparable in said activity to Dipyridamole	deaths noted up to a dose of 4 g/kg body weight (male ddY strain mice): no deaths were noted; LD50 at 336 h [2]: > 4000 mg/kg; IC50 [1, 5]: 320 µM
O=C(O)CN1C(=O)C(=CNc2ccccc2-c2ccccc2)SC1=S [Compound No. 15, 3-Carboxymethyl-5-(2-biphenylyl)aminomethylidenerhodanine]	150	–	–	deaths noted up to a dose of 4 g/kg body weight (male ddY strain mice): no deaths were noted; LD50 at 336 h [2]: > 4000 mg/kg; IC50 [1, 5]: 410 µM
COc1cccc(NC=C2SC(=S)N(CC(=O)O)C2=O)c1 [Compound No. 7, 3-Carboxymethyl-5-m-methoxyphenylaminomethylidene-rhodanine]	26	300	almost comparable in said activity to Dipyridamole	deaths noted up to a dose of 4 g/kg body weight (male ddY strain mice): no deaths were noted; LD50 at 336 h [2]: > 4000 mg/kg; IC50 [1, 5]: 310 µM
OCCN(CCO)c1nc(N2CCCCC2)c2nc(N(CCO)CCO)nc(N3CCCCC3)c2n1 [Dipyridamole, reference compound]	–	–	–	IC50 [1, 3]: 200 µM
O=C(O)CN1C(=O)C(=CNc2ccc(Br)cc2)SC1=S [Compound No. 10, 3-Carboxymethyl-5-p-bromophenylaminomethylidenerhodanine]	50	300	almost comparable in said activity to Dipyridamole	IC50 [1, 3]: 300 µM
CC(C)CNC=C1SC(=S)N(CC(=O)O)C1=O [Compound No. 5, 3-Carboxymethyl-5-isobutylaminomethylidenerhodanine]	600	–	–	–
